Patent publication US7803757B2, “Peptides based on the sequence of human lactoferrin and their use” (PharmaSurgics in Sweden AB, priority 1998, dated 2010)
≈ marks a conversion by molar mass, not a printed value. Bridge positions count the residues as written; N and C are the ends. Square brackets hold non-standard residues; d marks the D form. Ends that are not written are not given here. Nle = CCCC[C@H](N)C(=O)O

What was measured:
[1] = system: S. aureus; assay: MMC99% of modified peptides, S. aureus (Example 26); assay type: cell-based; conditions: BHI diluted 1/100, pH approximately 6.7-6.9 (Table 22)
Description: (§1) In the examples, the minimal microbicidal concentrations (MMC) and minimal inhibitory concentrations (MIC) were determined as follows, unless otherwise specified in the examples. Bacterial or fungal strains were cultured in BHI medium over night at 37° C. A volume of the culture was transferred to a new tube with BHI and incubated for two more hours. Thereafter the cells were spun down and the pellet was suspended in BHI medium diluted 1/100 (1% BHI). The concentration of bacterial or fungal cells was spectrophotometrically determined at 650 nm. The microbial concentrations were also determined by viable counts. Peptides serially diluted in 1% BHI by twofold or tenfold steps were added in triplicate to the wells of a microtiterplate (200 μl per well). The bacterial or fungal cell solutions were added in 10 μl volumes to give a final concentration of approximately 1-5×10^5 cells per ml in the well. The microplate was incubated at 37° C. in a humid chamber for two hours. Thereafter 5 μl was taken from each well and added as a drop onto a blood agar plate and incubated over night at 37° C. The microplate was incubated for another 20 hours at 37° C. and thereafter analysed spectrophotometrically at 650 nm in a microplate reader (Emax, Molecular Devices, USA). The concentration of peptide causing a 99% reduction of the inoculum after 2 hours of incubation was defined as the MMC99%. The MIC value was defined as the concentration giving no increase in the absorbance value above the background level after 20 hours of incubation.
(§2) In this example the fungicidal, and bactericidal effects of the different peptides obtained in example 22 were studied. C. albicans, E. coli and S. aureus, respectively, were incubated in BHI medium diluted 1/100, with a pH of approximately 6.7-6.9. The concentration of each peptide needed to kill 99% of the microorganisms (MMC99%) was determined.

[2] = system: E. coli; assay: MMC99% of modified peptides, E. coli (Example 26); assay type: cell-based; conditions: BHI diluted 1/100, pH approximately 6.7-6.9 (Table 22)
Description: as §1, §2

[3] = system: C. albicans; assay: MMC99% of modified peptides, C. albicans (Example 26); assay type: cell-based; conditions: BHI diluted 1/100, pH approximately 6.7-6.9 (Table 22)
Description: as §1, §2

[4] = system: C. albicans; assay: microbe, parasite or virus in culture; assay type: cell-based; conditions: C. albicans, BHI diluted 1/100, twofold dilutions from 20 μg/ml
Description: as §1
Also in this example one of the peptides according to the invention—this time the peptide with SEQ. ID. NO. 4, was compared to a conventional fungicide, amphotericin. The antifungal activity against C. albicans was studied. Twofold serial dilutions with a starting concentration of 20 μg/ml were used. BHI diluted 1/100 was used as growth medium.

[5] = system: E. coli O14; assay: bactericidal activity against E. coli O14, comparison with EP-A-0 629 347 peptides (Example 7); assay type: cell-based
Description: (§3) In this example an in vitro test was performed to compare the bactericidal and fungicidal activity of the peptides according to the invention with peptides described in EP-A-0 629 347. The peptide according to the invention used was peptide 4, and the peptides according to EP-A-0 629 347 called Morinaga 10, Morinaga 11, Morinaga 12, and Morinaga 13.
(§4) The peptides were incubated with E. coli O14 and Candida albicans. Two concentrations of C. albicans yeast cells were tested, 5·10^6 and 5·10^3 per ml. Different concentrations of the peptides were tested.
(§5) After the incubation, samples were taken for bacterial plating. Serial dilutions of tenfold steps were used in the experiments marked with I in table 5 and of twofold steps in the experiments marked with II.

[6] = system: Candida albicans; assay: fungicidal activity against Candida albicans, comparison with EP-A-0 629 347 peptides (Example 7); assay type: cell-based; conditions: C. albicans, I (tenfold steps)
Description: as §3, §4, §5

[7] = system: multiresistant S. aureus; assay: bactericidal activity, multiresistant S. aureus (Example 18); assay type: cell-based; conditions: multiresistant S. aureus 5.0×10^5 per ml
Description: In this example the bactericidal activity of two of the peptides according to the invention was studied in a test with a multiresistant S. aureus. A bacterial solution with a concentration of 5.0×10^5 S. aureus bacterial per ml was used. The concentration of each peptide needed to kill 99% of the bacteria (MMC99%) was determined after 2 hours and after 24 hours of incubation at 37° C.

[8] = system: S. epidermis; assay: killing of bacteria at fixed peptide concentration, S. epidermis (Example 12); assay type: cell-based; conditions: peptide 25 μg/ml
Description: (§6) In this example, the peptides according to the invention were used to study the effect on the killing of different bacteria.
(§7) The peptides were used at a concentration of 25 μg/ml.

[9] = system: K. pneumoniae; assay: killing of bacteria at fixed peptide concentration, K. pneumoniae (Example 12); assay type: cell-based; conditions: peptide 25 μg/ml
Description: as §6, §7

[10] = system: E. faecalis; assay: killing of bacteria at fixed peptide concentration, E. faecalis (Example 12); assay type: cell-based; conditions: peptide 25 μg/ml
Description: as §6, §7

[11] = system: C. albicans yeast cells (ATCC64549); assay: killing and growth inhibition of C. albicans at pH 4.5 (Example 11); assay type: cell-based; design: key to C. albicans inhibition (OD650): + = no increase in OD650 is seen; − = OD650 continues to increase; conditions: pH 4.5, 1% BHI, 25 μg/ml of the peptide
Description: C. albicans yeast cells (ATCC64549) were incubated for 2 hours at pH 4.5 in BHI medium diluted to 1% of the original concentration containing 25 µg/ml of the peptide. Thereafter the fungal solutions were cultured on blood agar plates. OD650 was measured after incubation during an additional 18 hours. The fungicidal effect of the peptides on C. albicans was determined as the ability of the peptide to kill 100% and 99%, respectively, of the fungus, while the growth inhibitory effect was determined by measuring the OD650. An inhibitory effect existed when no increase in OD650 was recorded.

[12] = system: E. coli O6; assay type: cell-based
Description: as §1
(§8) C. albicans (ATCC64549) and E. coli O6, respectively, were incubated with the different peptides. The experiments were performed with 1, 10, 25 and 100 μg/ml of peptide.

[13] = system: C. albicans (ATCC64549); assay type: cell-based
Description: as §1, §8

[14] = system: P. aeruginosa; assay: killing of bacteria at fixed peptide concentration, P. aeruginosa (Example 12); assay type: cell-based; conditions: peptide 25 μg/ml
Description: as §6, §7

[15] = system: S. aureus; assay: killing of bacteria at fixed peptide concentration, S. aureus (Example 12); assay type: cell-based; conditions: peptide 25 μg/ml
Description: as §6, §7

[16] = system: C. albicans; assay: microbicidal activity MMC99%, C. albicans (Example 28); assay type: cell-based; conditions: C. albicans (Table 24)
Description: as §1
(§9) In this example the microbicidal activity of eight of the peptides according to the invention was studied, and tested against E. coli O6K5 and C. albicans.
(§10) The concentration of each peptide needed to kill 99% of the microorganisms (MMC99%) was determined.

[17] = system: E. coli; assay: MMC99% of modified peptides, E. coli (Example 25); assay type: cell-based; conditions: BHI diluted 1/100, pH approximately 6.7-6.9 (Table 21)
Description: as §1
as §2, with “examples 18-21” for “example 22”

[18] = system: S. aureus; assay: MMC99% of modified peptides, S. aureus (Example 25); assay type: cell-based; conditions: BHI diluted 1/100, pH approximately 6.7-6.9 (Table 21)
Description: as §1
as §2, with “examples 18-21” for “example 22”

[19] = system: C. albicans; assay: MMC99% of modified peptides, C. albicans (Example 25); assay type: cell-based; conditions: BHI diluted 1/100, pH approximately 6.7-6.9 (Table 21)
Description: as §1
as §2, with “examples 18-21” for “example 22”

[20] = system: E. coli O6K5; assay: microbicidal activity MMC99%, E. coli O6K5 (Example 28); assay type: cell-based; conditions: E. coli O6K5 (Table 24)
Description: as §1, §9, §10

[21] = system: C. albicans (ATCC 64549); assay: microbe, parasite or virus in culture; conditions: for MMC99%: C. albicans ATCC 64549, 2×10^5 cells/ml, BHI diluted 1/100; for MIC: Candida albicans, ATCC64549
Description: as §1
In this example the fungicidal activity of one of the peptides according to the invention, the peptide with SEQ. ID. NO. 7, was compared to the conventional antifungal agents flucytosine and fluconazole, and also to human lactoferrin (hLF). The antifungal agents were tested on C. albicans (ATCC 64549) in a concentration of 2×10^5 cells/ml. The tests were performed in BHI medium diluted 1/100.

[22] = E. coli O14, I: serial dilutions of tenfold steps

C-F-A-W-Q-R-A-M-R-K-V-R (CFAWQRAMRKVR) [SEQ. ID. NO. 94]
MMC99% [1]: 6
MMC99% [2]: 6
MMC99% [3]: 12

C[C@@H]1[C@H](O)[C@@H](C)/C=C/C=C/C=C/C=C/C=C/C=C/C=C/[C@H](O[C@@H]2O[C@H](C)[C@@H](O)[C@H](N)[C@@H]2O)C[C@@H]2O[C@](O)(C[C@@H](O)C[C@@H](O)[C@H](O)CC[C@@H](O)C[C@@H](O)CC(=O)O[C@H]1C)C[C@H](O)[C@H]2C(=O)O [Amphotericin, amphotericin, reference compound]
MMC99% [4]: 2.5 µg/mL
MIC ([4]; Candida albicans, read-out: MIC): 0.6 µg/mL (≈ 0.649 µM)

SEQ. ID. NO. 97: listed under the third and fourth embodiments; sequence only in the appended sequence listing (CFALKKAMKKVR)
MMC99% [1]: 6
MMC99% [2]: 6
MMC99% [3]: 12

C-F-A-L-K-K-A-M-K-K-V-R (CFALKKAMKKVR) [SEQ. ID. NO. 96]
MMC99% [1]: 12
MMC99% [2]: 6
MMC99% [3]: 12

Q-W-Q-R [Morinaga 12]
Concentration of agent for 100% killing [5, 22]: >500 µg/mL
Concentration of agent for 100% killing ([6]; 5 · 10^3 yeast cells per ml): >2000 µg/mL
Concentration of agent for 100% killing ([6]; 5 · 10^6 yeast cells per ml): >2000 µg/mL

KCFQWQRNMRKVR [Peptide 48]
MMC99% ([7]; 2 hours at 37° C.): 5.0 µg/mL
MMC99% ([7]; 24 hours at 37° C.): ≦0.32 μg/ml
killing of bacteria: S. epidermis [8]: + (+ = 99% of the bacteria are killed)
killing of bacteria: K. pneumoniae [9]: + (+ = 99% of the bacteria are killed)
killing of bacteria: E. faecalis [10]: + (+ = 99% of the bacteria are killed)
C. albicans inhibition (OD650) ([11]; OD650 after an additional 18 hours): +
C. albicans killing: 99% ([11]; 2 hours): + (+ = 100/99% of the bacteria are killed)
C. albicans killing: 100% ([11]; 2 hours): + (+ = 100/99% of the bacteria are killed)
MMC99% ([12]; E. coli O6, tested at 1, 10, 25 and 100 μg/ml of peptide): 10 µg/mL
MIC ([12]; O6): 10 µg/mL
MIC ([13]; ATCC64549): 10 µg/mL
MMC99% ([13]; C. albicans, tested at 1, 10, 25 and 100 μg/ml of peptide): 10 µg/mL
killing of bacteria: P. aeruginosa [14]: + (+ = 99% of the bacteria are killed)
killing of bacteria: S. aureus [15]: + (+ = 99% of the bacteria are killed)

C-F-Q-W-Nle-R-N-M-R-K-V-R (CFQW[Nle]RNMRKVR) [SEQ. ID. NO. 88]
MMC99% [16]: 10
MMC99% [17]: 12
MMC99% [18]: 3.5
MMC99% [19]: 6
MMC99% [20]: 5

OC(Cn1cncn1)(Cn1cncn1)c1ccc(F)cc1F [Fluconazole, fluconazole, reference compound]
MMC99% [21]: >500 µg/mL
MIC [21]: > 500 µg/mL

Nc1[nH]c(=O)ncc1F [Flucytosine, flucytosine, reference compound]
MMC99% [21]: >500 µg/mL
MIC [21]: 250 µg/mL (≈ 1940 µM)

C-F-Q-W-K-R-N-M-R-K-V-R (CFQWKRNMRKVR) [SEQ. ID. NO. 91]
MMC99% [1]: 6
MMC99% [16]: 5
MMC99% [2]: 6
MMC99% [3]: 6
MMC99% [20]: 5

F-Q-W-Q-R-N (FQWQRN) [Morinaga 10]
Concentration of agent for 100% killing [5, 22]: >500 µg/mL
Concentration of agent for 100% killing ([5]; E. coli O14, II: serial dilutions of twofold steps): 1000 µg/mL
Concentration of agent for 100% killing ([6]; 5 · 10^3 yeast cells per ml): >2000 µg/mL
Concentration of agent for 100% killing ([6]; 5 · 10^6 yeast cells per ml): >2000 µg/mL

SEQ. ID. NO. 55: modification of SEQ. ID. NO. 7 wherein the Asp in position 9 is substituted with a Glu (TKAFKWQREMRKVR; lactam 5-9)
MMC99% [16]: 5
MMC99% [20]: 5

C-F-A-W-K-R-N-M-R-K-V-R (CFAWKRNMRKVR) [SEQ. ID. NO. 93]
MMC99% [1]: 6
MMC99% [16]: 5
MMC99% [2]: 6
MMC99% [3]: 12
MMC99% [20]: 5

C-F-Q-L-Q-K-N-M-K-K-V-R (CFQLQKNMKKVR) [SEQ. ID. NO. 95]
MMC99% [1]: 6
MMC99% [2]: 6
MMC99% [3]: 12

F-Q-W-Q-R [Morinaga 11]
Concentration of agent for 100% killing [5, 22]: >500 µg/mL
Concentration of agent for 100% killing ([6]; 5 · 10^3 yeast cells per ml): >2000 µg/mL
Concentration of agent for 100% killing ([6]; 5 · 10^6 yeast cells per ml): >2000 µg/mL

W-Q-R [Morinaga 13]
Concentration of agent for 100% killing [5, 22]: >500 µg/mL
Concentration of agent for 100% killing ([6]; 5 · 10^3 yeast cells per ml): >2000 µg/mL
Concentration of agent for 100% killing ([6]; 5 · 10^6 yeast cells per ml): >2000 µg/mL
